Test results: patent US20240158446A1, “CYCLIC COMPOUND HAVING SELECTIVE INHIBITORY ACTION ON KRAS OVER HRAS AND NRAS” (CHUGAI SEIYAKU KABUSHIKI KAISHA, priority 2021, published 2024)
Where a SMILES comes first, the peptide text is derived from it. Bridges are numbered along the chain shown (N, C = ends). [ ]: non-standard residue; d: D form. hPhe(3-Cl-4-CF3) = N[C@@H](CCc1ccc(C(F)(F)F)c(Cl)c1)C(=O)O; NPrPhe(4-CF3) = CCCN[C@@H](Cc1ccc(C(F)(F)F)cc1)C(=O)O; NMeGly(cPent) = CN[C@H](C(=O)O)C1CCCC1; Pro(4,4-F2) = O=C(O)[C@@H]1CC(F)(F)CN1; Hyp = O=C(O)[C@@H]1C[C@@H](O)CN1; NMeL = CN[C@@H](CC(C)C)C(=O)O; Ac5c = NC1(C(=O)O)CCCC1; Ac4c = NC1(C(=O)O)CCC1; NEtG = CCNCC(=O)O; Sar = CNCC(=O)O

How the values were obtained:
[1] = target: GDP-bound HRAS wild-type protein (Homo sapiens, UniProt P01112); assay: Binding to HRAS by surface plasmon resonance (SPR), Single Cycle Kinetics; details: SPR, GDP-bound HRAS wild-type protein vs GDP-bound KRAS wild-type protein
Chain of GDP-bound HRAS wild-type protein (P01112 whole entry): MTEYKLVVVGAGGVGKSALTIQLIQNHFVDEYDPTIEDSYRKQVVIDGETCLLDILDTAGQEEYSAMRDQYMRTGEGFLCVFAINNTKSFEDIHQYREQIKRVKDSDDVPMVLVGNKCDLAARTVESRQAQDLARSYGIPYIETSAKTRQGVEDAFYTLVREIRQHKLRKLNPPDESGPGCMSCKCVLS

[2] = target: GDP-bound NRAS wild-type protein (Homo sapiens, UniProt P01111); assay: Binding to NRAS by surface plasmon resonance (SPR), Single Cycle Kinetics; details: SPR, GDP-bound NRAS wild-type protein vs GDP-bound KRAS wild-type protein
Chain of GDP-bound NRAS wild-type protein (P01111 whole entry): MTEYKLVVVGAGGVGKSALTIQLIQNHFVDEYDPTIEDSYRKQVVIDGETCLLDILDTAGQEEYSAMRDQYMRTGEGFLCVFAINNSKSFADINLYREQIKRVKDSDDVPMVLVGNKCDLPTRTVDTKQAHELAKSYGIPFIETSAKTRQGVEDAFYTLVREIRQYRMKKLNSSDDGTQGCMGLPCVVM

[3] = target: GDP-bound KRAS wild-type protein (Homo sapiens, UniProt P01116); assay: Binding to KRAS by surface plasmon resonance (SPR), Single Cycle Kinetics; details: SPR Single Cycle Kinetics, GDP-bound KRAS wild-type protein, 1:1 binding model; read-out: KRAS KD
Chain of GDP-bound KRAS wild-type protein (P01116 whole entry): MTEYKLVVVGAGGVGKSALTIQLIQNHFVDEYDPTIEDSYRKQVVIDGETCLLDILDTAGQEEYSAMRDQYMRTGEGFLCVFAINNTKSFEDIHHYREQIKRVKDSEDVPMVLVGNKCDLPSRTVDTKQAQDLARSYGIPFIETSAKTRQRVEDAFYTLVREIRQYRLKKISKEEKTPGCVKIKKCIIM

SMILES | Kd [3] [nM] | HRAS/KRAS (ratio of KD value for HRAS to KD value for KRAS) [1] | NRAS/KRAS (ratio of KD value for NRAS to KD value for KRAS) [2]
CCCN1C(=O)CN(C)C(=O)CNC(=O)[C@H]([C@@H](C)CC)NC(=O)[C@H](CC(C)C)N(C)C(=O)C[C@@H](C(=O)N(C)C)NC(=O)[C@H](C2CCCC2)N(C)C(=O)C2(CCCC2)NC(=O)[C@@H]2CC(F)(F)CN2C(=O)[C@H](CCc2ccc(C(F)(F)F)c(Cl)c2)NC(=O)CN(C)C(=O)[C@@H]1Cc1ccc(C(F)(F)F)cc1 [PP0363] ([NMeL]IG[Sar][NPrPhe(4-CF3)][Sar][hPhe(3-Cl-4-CF3)][Pro(4,4-F2)][Ac5c][NMeGly(cPent)]D-NMe2; lactam N-11) | 1 | C (A compound having a KD ratio of 0.1 or more and less than 3 is denoted as C) | B (a compound having 3 or more and less than 10 is denoted as B)
CCCN1C(=O)CN(C)C(=O)CN(CC)C(=O)[C@H]([C@@H](C)CC)NC(=O)[C@H](CC(C)C)N(C)C(=O)C[C@@H](C(=O)N(C)C)NC(=O)[C@H](C2CCCC2)N(C)C(=O)C2(CCCC2)NC(=O)[C@@H]2CCCN2C(=O)[C@H](CCc2ccc(C(F)(F)F)c(Cl)c2)NC(=O)CN(C)C(=O)[C@@H]1Cc1ccc(C(F)(F)F)cc1 [PP0367] ([NMeL]I[NEtG][Sar][NPrPhe(4-CF3)][Sar][hPhe(3-Cl-4-CF3)]P[Ac5c][NMeGly(cPent)]D-NMe2; lactam N-11) | 1.3 | B (a compound having 3 or more and less than 10 is denoted as B) | B (a compound having 3 or more and less than 10 is denoted as B)
CCCN1C(=O)CN(C)C(=O)CN(CC)C(=O)[C@H]([C@@H](C)CC)NC(=O)[C@H](CC(C)C)N(C)C(=O)C[C@@H](C(=O)N(C)C)NC(=O)[C@H](C2CCCC2)N(C)C(=O)C2(CCC2)NC(=O)[C@@H]2CCCN2C(=O)[C@H](CCc2ccc(C(F)(F)F)c(Cl)c2)NC(=O)CN(C)C(=O)[C@@H]1Cc1ccc(C(F)(F)F)cc1 [PP0368] ([NMeL]I[NEtG][Sar][NPrPhe(4-CF3)][Sar][hPhe(3-Cl-4-CF3)]P[Ac4c][NMeGly(cPent)]D-NMe2; lactam N-11) | 1.7 | B (a compound having 3 or more and less than 10 is denoted as B) | B (a compound having 3 or more and less than 10 is denoted as B)
CCCN1C(=O)CN(C)C(=O)CN(CC)C(=O)[C@H]([C@@H](C)CC)NC(=O)[C@H](CC(C)C)N(C)C(=O)C[C@@H](C(=O)N(C)C)NC(=O)[C@H](C2CCCC2)N(C)C(=O)C2(CCCC2)NC(=O)[C@@H]2CC(F)(F)CN2C(=O)[C@H](CCc2ccc(C(F)(F)F)c(Cl)c2)NC(=O)CN(C)C(=O)[C@@H]1Cc1ccc(C(F)(F)F)cc1 [PP0369] ([NMeL]I[NEtG][Sar][NPrPhe(4-CF3)][Sar][hPhe(3-Cl-4-CF3)][Pro(4,4-F2)][Ac5c][NMeGly(cPent)]D-NMe2; lactam N-11) | 1.9 | C (A compound having a KD ratio of 0.1 or more and less than 3 is denoted as C) | B (a compound having 3 or more and less than 10 is denoted as B)
CCCN1C(=O)CN(C)C(=O)CN(CC)C(=O)[C@H]([C@@H](C)CC)NC(=O)[C@H](CC(C)C)N(C)C(=O)C[C@@H](C(=O)N(C)C)NC(=O)[C@H](C2CCCC2)N(C)C(=O)C2(CCC2)NC(=O)[C@@H]2CC(F)(F)CN2C(=O)[C@H](CCc2ccc(C(F)(F)F)c(Cl)c2)NC(=O)CN(C)C(=O)[C@@H]1Cc1ccc(C(F)(F)F)cc1 [PP0370] ([NMeL]I[NEtG][Sar][NPrPhe(4-CF3)][Sar][hPhe(3-Cl-4-CF3)][Pro(4,4-F2)][Ac4c][NMeGly(cPent)]D-NMe2; lactam N-11) | 1.5 | C (A compound having a KD ratio of 0.1 or more and less than 3 is denoted as C) | B (a compound having 3 or more and less than 10 is denoted as B)

The next compounds have a lower Kd [3] than those just listed; values first:

Kd [3] [nM] | SMILES | HRAS/KRAS (ratio of KD value for HRAS to KD value for KRAS) [1] | NRAS/KRAS (ratio of KD value for NRAS to KD value for KRAS) [2]
0.77 | CCCN1C(=O)CN(C)C(=O)CNC(=O)[C@H]([C@@H](C)CC)NC(=O)[C@H](CC(C)C)N(C)C(=O)C[C@@H](C(=O)N(C)C)NC(=O)[C@H](C2CCCC2)N(C)C(=O)C2(CCC2)NC(=O)[C@@H]2CC(F)(F)CN2C(=O)[C@H](CCc2ccc(C(F)(F)F)c(Cl)c2)NC(=O)CN(C)C(=O)[C@@H]1Cc1ccc(C(F)(F)F)cc1 [PP0364] ([NMeL]IG[Sar][NPrPhe(4-CF3)][Sar][hPhe(3-Cl-4-CF3)][Pro(4,4-F2)][Ac4c][NMeGly(cPent)]D-NMe2; lactam N-11) | B (a compound having 3 or more and less than 10 is denoted as B) | B (a compound having 3 or more and less than 10 is denoted as B)
0.48 | CCCN1C(=O)CN(C)C(=O)CN(CC)C(=O)[C@H]([C@@H](C)CC)NC(=O)[C@H](CC(C)C)N(C)C(=O)C[C@@H](C(=O)N(C)C)NC(=O)[C@H](C2CCCC2)N(C)C(=O)C2(CCCC2)NC(=O)[C@@H]2C[C@@H](OCC)CN2C(=O)[C@H](CCc2ccc(C(F)(F)F)c(Cl)c2)NC(=O)CN(C)C(=O)[C@@H]1Cc1ccc(C(F)(F)F)cc1 [PP0371] ([NMeL]I[NEtG][Sar][NPrPhe(4-CF3)][Sar][hPhe(3-Cl-4-CF3)][Hyp](Et)[Ac5c][NMeGly(cPent)]D-NMe2; lactam N-11) | C (A compound having a KD ratio of 0.1 or more and less than 3 is denoted as C) | B (a compound having 3 or more and less than 10 is denoted as B)
0.38 | CCCN1C(=O)CN(C)C(=O)CNC(=O)[C@H]([C@@H](C)CC)NC(=O)[C@H](CC(C)C)N(C)C(=O)C[C@@H](C(=O)N(C)C)NC(=O)[C@H](C2CCCC2)N(C)C(=O)C2(CCC2)NC(=O)[C@@H]2C[C@@H](OCC)CN2C(=O)[C@H](CCc2ccc(C(F)(F)F)c(Cl)c2)NC(=O)CN(C)C(=O)[C@@H]1Cc1ccc(C(F)(F)F)cc1 [PP0366] ([NMeL]IG[Sar][NPrPhe(4-CF3)][Sar][hPhe(3-Cl-4-CF3)][Hyp](Et)[Ac4c][NMeGly(cPent)]D-NMe2; lactam N-11) | B (a compound having 3 or more and less than 10 is denoted as B) | B (a compound having 3 or more and less than 10 is denoted as B)
0.29 | CCCN1C(=O)CN(C)C(=O)CNC(=O)[C@H]([C@@H](C)CC)NC(=O)[C@H](CC(C)C)N(C)C(=O)C[C@@H](C(=O)N(C)C)NC(=O)[C@H](C2CCCC2)N(C)C(=O)C2(CCCC2)NC(=O)[C@@H]2C[C@@H](OCC)CN2C(=O)[C@H](CCc2ccc(C(F)(F)F)c(Cl)c2)NC(=O)CN(C)C(=O)[C@@H]1Cc1ccc(C(F)(F)F)cc1 [PP0365] ([NMeL]IG[Sar][NPrPhe(4-CF3)][Sar][hPhe(3-Cl-4-CF3)][Hyp](Et)[Ac5c][NMeGly(cPent)]D-NMe2; lactam N-11) | B (a compound having 3 or more and less than 10 is denoted as B) | B (a compound having 3 or more and less than 10 is denoted as B)
